# Data from patent US20070197658A1, “Polyamines and their use as antibacterial and sensitizing agents” (priority 2006, published 2007).
# “And” between values parts separate entries of the source, which are not always exact repeats. Equal values may be shown once. Where a name gives a salt, the structure may show the parent alone. Read-outs that look alike come from different tables or passages of the source. Bridge positions count the residues as written; N and C are the ends. Square brackets hold non-standard residues; d marks the D form. Peptide text beside a SMILES is read from it. Dab = NCC[C@H](N)C(=O)O
# Columns and labels:
# E. coli ATCC 9637 [1] = assay: Effect of acylpolyamines on MIC of rifampicin (sensitization); type: cell-based, Escherichia coli; conditions: for Sensitization to Rifampin: E. coli strain 9637 preincubated with 10 μM of compound, MIC of rifampicin
# Description: E. coli ATCC 9637 was seeded in MH broth in chequerboard format in a 384-well plate containing a constant concentration of compound and varying doses of rifampicin. Bacterial growth was monitored by turbidimetry at 600 nm. PMBN and melittin were used as positive controls. Wells containing no test-compound served as negative control. […] Fold sensitization was calculated as MICRifampicin alone/MICRifampicin+10μM Compound.
# Perturbation of the outer membrane permeability barrier greatly sensitizes Gram negative organisms to otherwise impermeable hydrophobic solutes, rifampicin being a classic example To determine the effect of acylpolyamines on the MIC of hydrophobic antibiotic, rifampicin, E. coli strain 9637 was used. Overnight cultures of E. coli grown in MHB preincubated with 10 μM of acylpolyamines were added to serially diluted rifampicin in a 384-well microtiter plate. After incubation at 37° C. overnight, the MIC was determined. Controls included PMBN and melittin (positive) and rifampicin alone (negative). All experiments were run in triplicate.
# E. coli ATCC 9637 [2] = assay: microbe, parasite or virus in culture
# Description: (§1) An equal volume of a suspension of either E. coli ATCC 9637 (FIG. 6A) or S. aureus ATCC 13709 (FIG. 6B) in 2× Mueller-Hinton broth was added using an automated liquid dispensing system to a 384 well plate, and bacterial growth was measured by absorptimetry as described in Materials and Methods.
# (§2) In this example, E. coli strain 9637 and S. aureus strain 13709 were procured from ATCC (Manassas, Va.). For IM permeability assays, E. coli ML-35 (ATCC 43827), a lactose permease-deficient strain with constitutive cytoplasmic β-galactosidase activity was used (26). Calcium chloride transformation of E. coli ML-35 was performed using the plasmid vector pBR322 (6), encoding tetracycline and ampicillin resistance genes (Promega, Madison, Wis.). The transformed strain, E. coli ML-35p, selected by ampicillin resistance, was utilized for the OM permeabilization assay. E. coli ML-35p was maintained on trypticase soy agar plates with 50 μg/ml of ampicillin.
# (§3) Minimum inhibitory concentrations of the acylpolyamines were determined by broth microdilution method (1) as per NCCLS guidelines. Mid-log phase Mueller-Hinton broth (MHB; non-cation supplemented) cultures of organisms (40 μl; OD600nm adjusted to 0.5 AU, and diluted ten-fold) were added to equal volumes of two-fold serially diluted acylpolyamines in a 384-well microtiter plate with the help of a Biotek Precision 2000 automated microplate pipetting system. The MICs of rifampicin, polymyxin B (PMB), polymyxin B nonapeptide (PMBN), naphthylacetyl spermine trihydrochloride and methoctramine tetrahydrochloride (Sigma, St. Louis, Mo.) were included as reference compounds for comparison of activity. The microtiter plates were sealed and incubated overnight at 37° C. The plates were read at an absorbance of 600 nm. The lowest concentration of an agent inhibiting growth of the organisms was recorded as the MIC.
# S. aureus ATCC 13709 = assay: microbe, parasite or virus in culture
# Description: as §1, §2, §3
# E. coli W3110 = conditions: cited from earlier work
# CF-1 mice = conditions: preliminary; for subacute toxicity: 100 μg/mouse, subcutaneously, for 15 days; for acute toxicity: up to 1 mg/mouse, one dose subcutaneously
# Description: Detailed biophysical studies on the characterization of the binding site on albumin, stoichiometry, and dependence of binding affinity on mono-versus bis-acylation and acyl chain length will be published elsewhere.
# Clinical signs of acute toxicity were monitored for 48 h following a single injection. In subacute studies, 100 μg of 4e was injected daily in the subcutaneous tissue of the flank region, the sites being alternated every day, for a duration of 15 days. The animals were monitored daily for signs of local irritation, weight loss, and food consumption.
# [3] = system: E. coli ML-35p (OM) / E. coli ML-35 (IM); type: cell-based, Escherichia coli; conditions: nitrocefin and ONPG hydrolysis
# Description: OM permeabilizing activity was determined using E. coli ML-35p (parent i^− z^+ y^− ATCC 43827 transformed with pBR322 vector encoding periplasmic β-lactamase); the leakage of periplasmic β-lactamase activity was quantified using nitrocefin as a chromogenic substrate. IM permeabilizing activity was determined using E. coli ML-35 using o-nitrophenyl-β-D-galactopyranoside as the substrate to determine the β-galactosidase activity. In all experiments, PMB, PMBN, and melittin were used as reference compounds.
# Nitrocefin (Calbiochem, San Diego, Calif.) was used for the determination of periplasmic β-lactamase activity since PADAC has been reported to be frequently insensitive to β-lactamase activity in clinically relevant strains of Staphylococcus. […] Harvested mid-log phase cultures of E. coli ML-35p (OD600nm adjusted to 0.5 AU) grown in trypticase soy broth were washed thrice with normal saline (0.9%). Nitrocefin was added to a final concentration of 50 μg/ml to the washed bacterial suspension, which was then added to the serially diluted compounds in a 384-well microtiter plate as described earlier. […] After various times of incubation at 37° C., β-lactamase activity was measured spectrophotometrically at 486 nm using an automated Spectramax M2 instrument (Molecular Devices, Sunnyvale, Calif.).
# The IM permeability was measured using o-nitrophenyl-β-D-galactopyranoside (“ONPG”; Sigma, St. Louis, Mo.) as the substrate to determine the β-galactosidase activity. […] Washed cultures of E coli ML-35 mixed with 1.5 mM of ONPG in normal saline (0.9%) were added to serially diluted compounds in a 384-well microtiter plate. PMBN and melittin were used as the controls. The production of o-nitrophenol was quantified absorptimetrically at 420 nm after an incubation period of 1 hour at 37° C.
# OM and IM permeability were determined respectively from dose-response curves of nitrocefin and ONPG hydrolysis rates as described in Lehrer et al., Concurrent assessment of inner and outer membrane permeabilization and bacteriolysis in E. coli by multiple-wavelength spectrophotometry, J. Immunol.
# human erythrocytes = conditions: for hemolytic activity in the presence of human serum albumin: physiological concentrations (~650 μM) of human serum albumin
# Description: Melittin was used as a positive control.
# Erythrocyte damage was measured using two different techniques. In the first, hemolysis was quantified using extremely diluted, aged human whole blood such that the effects of the compounds binding to plasma proteins would be negligible, and the hemolytic activity would be magnified because of increased osmotic fragility of the erythrocytes as a consequence of depleted Na^+ K^+ ATPase activity. […] Dilute erythrocyte suspensions were prepared by diluting one-week-old whole blood obtained by venipuncture from healthy human volunteers 1:1000 in isotonic (0.9 g/100 ml) saline solution to which was added graded doses of compound. […] The samples were therefore examined with a Beckman-Coulter Vi-Cell™ Cell Viability Analyzer (Beckman-Coulter, Hialeah, Fla.). This instrument implements an automated intravital trypan blue exclusion method using real-time automated video microscopy. Measurement parameters for erythrocytes were gated appropriately on control erythrocytes to specify thresholds of cell recognition and viability. Data on total number of cells/ml and viable cells/ml were collected through 50 captured images per sample with a counting accuracy of ±3%. In order to examine the effect of plasma proteins on the surface activity, some of the experiments were repeated in the presence of near-physiological concentrations of human serum albumin. […] The second method, consequently, was designed to examine the effects of the compounds on whole blood. […] After incubation at 37° C. for 30 min, the plates were centrifuged at 3000 RPM for 10 min, 80 μl of supernatants transferred to a fresh plate, and the amount of free hemoglobin released into the supernatant was quantified using absorptimetry at 570 nm.
# The hemolysis induced by the compounds was quantified using an extremely dilute suspension of washed, aged human erythrocytes under protein-free conditions (isotonic saline). […]
# [4] = 500 μM in 50 mM Tris buffer, pH 7.4, 5% DMSO, 25° C.
# Description: Charged, amphipathic molecules are surface-active, and can be cytolytic to mammalian cells. […] Samples were at 500 μM concentration in 50 mM Tris buffer, pH 7.4 containing 5% DMSO. The instrument was calibrated with water at 25° C. (72 mN/m) and surface tension values were recorded over a range of bubble surface ages from 100 to 1500 ms at 25° C.
# [5] = E. coli ATCC 9637, Mueller-Hinton broth, overnight 37° C.
# [6] = S. aureus ATCC 13709, Mueller-Hinton broth, overnight 37° C.
# [7] = 10 μM compound, E. coli ATCC 9637
compound,measurement,setting,value
CC(=O)NCCCNCCCNCCCCNCCCN.O=C(O)C(F)(F)F.O=C(O)C(F)(F)F.O=C(O)C(F)(F)F.O=C(O)C(F)(F)F [Compound 4a],Sensitization to Rifampin,E. coli ATCC 9637 [1],31.25
same,MIC,E. coli ATCC 9637 [2]; [5],62.5 μM and 47.3 μg/ml
CCCCCCCCCCCCCCCCCCC(=O)NCCCNCCCNCCCCNCCCNCCCNC(=O)CCCCCCCCCCCCCCCCCC.O=C(O)C(F)(F)F.O=C(O)C(F)(F)F.O=C(O)C(F)(F)F.O=C(O)C(F)(F)F [Compound 8f],Sensitization to Rifampin,E. coli ATCC 9637 [1],15.6
same,MIC,S. aureus ATCC 13709; [6],125 μM and 166.7 μg/ml
same,MIC,E. coli ATCC 9637 [2]; [5],62.5 μM and 83.3 μg/ml
CCCCCCCCCCCCCCCCC(=O)NCCCNCCCNCCCCNCCCNCCCNC(=O)CCCCCCCCCCCCCCCC.O=C(O)C(F)(F)F.O=C(O)C(F)(F)F.O=C(O)C(F)(F)F.O=C(O)C(F)(F)F [Compound 8e],Sensitization to Rifampin,E. coli ATCC 9637 [1],15.6
same,MIC,S. aureus ATCC 13709; [6],250 μM and 319.3 μg/ml
same,MIC,E. coli ATCC 9637 [2]; [5],62.5 μM and 79.4 μg/ml
"COc1ccccc1CNCCCCCCNCCCCCCCCNCCCCCCNCc1ccccc1OC [Methoctramine, methoctramine tetrahydrochloride, reference compound]",MIC reported by Yasuda et al.,E. coli W3110,22 μM and 16 mg/l
same,MIC,"S. aureus ATCC 13709; Staphylococcus aureus, ATCC13709",156 µM and 114 µg/mL
same,MIC,E. coli ATCC 9637 [2]; [5],312.5 µM
same,MIC,"E. coli ATCC 9637 [2]; Escherichia coli, ATCC9637",312 µM and 228 µg/mL
CCCCCCCCCCCCC(=O)NCCCNCCCNCCCCNCCCN.O=C(O)C(F)(F)F.O=C(O)C(F)(F)F.O=C(O)C(F)(F)F.O=C(O)C(F)(F)F [Compound 4d],subacute toxicity,CF-1 mice,not revealed any detectable toxicity
same,acute toxicity,CF-1 mice,not revealed any detectable toxicity
same,Sensitization to Rifampin,E. coli ATCC 9637 [1],62.5
same,MIC,S. aureus ATCC 13709; [6],15.6 μM and 14.4 μg/ml
same,MIC,E. coli ATCC 9637 [2]; [5],31.25 μM and 28.9 μg/ml
CCCCCCCCCCCCCCCCC(=O)NCCCNCCCNCCCCNCCCN.O=C(O)C(F)(F)F.O=C(O)C(F)(F)F.O=C(O)C(F)(F)F.O=C(O)C(F)(F)F [Compound 4f],membrane-permeabilizing activity (OM and IM),[3],highly membrane-active
same,Sensitization to Rifampin,E. coli ATCC 9637 [1],15.6
same,MIC,S. aureus ATCC 13709; [6],15.6 μM and 15.1 μg/ml
same,MIC,E. coli ATCC 9637 [2]; [5],62.5 μM and 60.4 μg/ml
same,hemolysis,"human erythrocytes; at 1-5 μM, dilute aged human erythrocytes, protein-free isotonic saline",100%
same,hemolytic activity in the presence of human serum albumin,human erythrocytes,completely abrogated
CCCCCCCCC(=O)NCCCNCCCNCCCCNCCCN.O=C(O)C(F)(F)F.O=C(O)C(F)(F)F.O=C(O)C(F)(F)F.O=C(O)C(F)(F)F [Compound 4b],Sensitization to Rifampin,E. coli ATCC 9637 [1],7.81
same,MIC,S. aureus ATCC 13709; [6],125 μM and 106.96 μg/ml
same,MIC,E. coli ATCC 9637 [2]; [5],62.5 μM and 53.4 μg/ml
CCCCCCCCCC(=O)NCCCNCCCNCCCCNCCCN.O=C(O)C(F)(F)F.O=C(O)C(F)(F)F.O=C(O)C(F)(F)F.O=C(O)C(F)(F)F [Compound 4c],Sensitization to Rifampin,E. coli ATCC 9637 [1],7.81
same,MIC,S. aureus ATCC 13709; [6],62.5 μM and 54.3 μg/ml
same,MIC,E. coli ATCC 9637 [2]; [5],62.5 μM and 54.3 μg/ml
"CC(C)C[C@@H]1NC(=O)[C@@H](Cc2ccccc2)NC(=O)[C@H](CCN)NC(=O)[C@@H](NC(=O)[C@H](CCN)NC(=O)[C@@H](N)[C@@H](C)O)CCNC(=O)[C@H]([C@@H](C)O)NC(=O)[C@H](CCN)NC(=O)[C@H](CCN)NC1=O [PMBN, polymyxin B nonapeptide, reference compound] (H-T[Dab][Dab][Dab][dF]L[Dab][Dab]T; lactam 3-C)",MIC of rifampicin in the presence of compound,E. coli ATCC 9637 [1]; [7],0.976 µg/mL
same,sensitization activity (MIC rifampicin alone / MIC rifampicin + 10 μM compound),E. coli ATCC 9637 [1]; [7],16 fold
same,MIC,S. aureus ATCC 13709; ATCC 13709,500; (481.5) μM
same,MIC,S. aureus ATCC 13709; [6],500; (481.5) μg/ml
same,MIC,E. coli ATCC 9637 [2]; ATCC 9637,250; (240.7) μM
same,MIC,E. coli ATCC 9637 [2]; [5],250; (240.7) μg/ml
"CO[C@H]1/C=C/O[C@@]2(C)Oc3c(C)c(O)c4c(O)c(c(/C=N/N5CCN(C)CC5)c(O)c4c3C2=O)NC(=O)/C(C)=C\C=C\[C@H](C)[C@H](O)[C@@H](C)[C@@H](O)[C@@H](C)[C@H](OC(C)=O)[C@@H]1C [rifampicin, reference compound]",MIC,"E. coli ATCC 9637 [1]; Escherichia coli, ATCC9637, E. coli ATCC 9637, no test compound, read-out: MIC of rifampicin alone",15.6 µg/mL
"Cl.Cl.Cl.NCCCNCCCCNCCCNC(=O)Cc1cccc2ccccc12 [Naphthylacetylspermine, naphthylacetyl spermine trihydrochloride, reference compound]",MIC reported by Yasuda et al.,E. coli W3110; trihydrochloride,> 267 μM and > 128 mg/l
same,MIC,"S. aureus ATCC 13709; S. aureus ATCC 13709, Mueller-Hinton broth, overnight 37° C., trihydrochloride",1250 μM and 599.8 μg/ml
same,MIC,"E. coli ATCC 9637 [2]; E. coli ATCC 9637, Mueller-Hinton broth, overnight 37° C., listed as naphthylacetylspermine, trihydrochloride",1250 µM
same,MIC,"E. coli ATCC 9637 [2]; E. coli ATCC 9637, Mueller-Hinton broth, overnight 37° C., trihydrochloride",1250 μM and 599.8 μg/ml
CCCCCCCCCCCCCCC(=O)NCCCNCCCNCCCCNCCCNCCCNC(=O)CCCCCCCCCCCCCC.O=C(O)C(F)(F)F.O=C(O)C(F)(F)F.O=C(O)C(F)(F)F.O=C(O)C(F)(F)F [Compound 8d],Sensitization to Rifampin,E. coli ATCC 9637 [1],15.6
same,MIC,S. aureus ATCC 13709; [6],250 μM and 305.3 μg/ml
same,MIC,E. coli ATCC 9637 [2]; [5],62.5 μM and 76.3 μg/ml
CCCCCCCCCCCCCCCCCCC(=O)NCCCNCCCNCCCCNCCCN.O=C(O)C(F)(F)F.O=C(O)C(F)(F)F.O=C(O)C(F)(F)F.O=C(O)C(F)(F)F [Compound 4g],membrane-permeabilizing activity (OM and IM),[3],highly membrane-active
same,MIC,S. aureus ATCC 13709; [6],15.6 μM and 15.5 μg/ml
same,MIC,E. coli ATCC 9637 [2]; [5],62.5 μM and 62.2 μg/ml
same,hemolytic activity in the presence of human serum albumin,human erythrocytes,completely abrogated
CCCCCCCCCC(=O)NCCCNCCCNCCCCNCCCNCCCNC(=O)CCCCCCCCC.O=C(O)C(F)(F)F.O=C(O)C(F)(F)F.O=C(O)C(F)(F)F.O=C(O)C(F)(F)F [Compound 8b],surface activity,[4],considerably surface active
same,sensitization activity (MIC rifampicin alone / MIC rifampicin + 10 μM compound),E. coli ATCC 9637 [1]; [7],4096 fold
same,Sensitization to Rifampin,E. coli ATCC 9637 [1],0.00381
same,MIC in the presence of human serum albumin,"S. aureus ATCC 13709; S. aureus, HSA 4.5 g/100 ml, 677 μM",15.6 µM
same,attenuation of MIC by human serum albumin,"S. aureus ATCC 13709; S. aureus, with vs without HSA 4.5 g/100 ml",four-fold
same,MIC in the presence of human serum albumin,"E. coli ATCC 9637 [2]; E. coli, HSA 4.5 g/100 ml, 677 μM",125 µM
same,attenuation of MIC by human serum albumin,"E. coli ATCC 9637 [2]; E. coli, with vs without HSA 4.5 g/100 ml",four-fold
"Polymyxin B [PMB, reference compound]",Sensitization to Rifampin,E. coli ATCC 9637 [1],0.2
same,MIC,S. aureus ATCC 13709; [6],125 μM and 173.2 μg/ml
same,MIC,E. coli ATCC 9637 [2]; [5],3.9 μM and 5.4 μg/ml
CCCCCCCCC(=O)NCCCNCCCNCCCCNCCCNCCCNC(=O)CCCCCCCC.O=C(O)C(F)(F)F.O=C(O)C(F)(F)F.O=C(O)C(F)(F)F.O=C(O)C(F)(F)F [Compound 8a],surface activity,[4],considerably surface active
same,subacute toxicity,CF-1 mice,not revealed any detectable toxicity
same,acute toxicity,CF-1 mice,not revealed any detectable toxicity
same,sensitization activity (MIC rifampicin alone / MIC rifampicin + 10 μM compound),E. coli ATCC 9637 [1]; [7],4096 fold
same,Sensitization to Rifampin,E. coli ATCC 9637 [1],0.00381
same,MIC,S. aureus ATCC 13709; [6],15.6 μM and 16.4 μg/ml
same,MIC,E. coli ATCC 9637 [2]; [5],31.25 μM and 32.9 μg/ml
